From patent US5091370A, “Angolamycin derivatives” (Sanraku Incorporated, priority 1989, dated 1992) come the findings set out here.

A short description of this data set: Stability test against a mouse liver homogenate. It counts as in vitro ADME, ICR-strain mice. The note with it: mouse liver homogenate supernatant, pH 7.2, 37° C., unchanged product remaining by TLC/chromatoscanner (283 nm), read-out: Residual activity ratio (%). The method, then:
The livers of ICR-strain mice were homogenized together with 5 times their amount of 0.1M phosphate buffer (pH 7.2) in a Potter homogenizer (3000 rpm, 10 minutes). One ml of 500 micrograms/ml of a test compound (10% methanol water) was added to the supernatant (1 ml) of the homogenate, and reacted at 37° C. for 1 hour. The mixture was heated at 100° C. of 3 minutes. Then, 1 ml of 0.1M phosphate buffer (pH 9.0) was added, and the mixture was extracted with 1 ml of ethyl acetate, organic layer was subjected to silica gel thin-layer chromatography (chloroform/methanol/ammonia=15/1.2/0.1), and by a chromatoscanner (283 nm), the ratio of an unchanged product and a hydrolyzed product formed was determined. The amount of the unchanged product remaining was expressed by percentage.

For `CCC1OC(=O)CC(O)C(C)C(OC2CC(N(C)C)C(OC3CC(C)(O)C(OC(=O)CC(C)C)C(C)O3)C(C)O2)C(CC=O)CC(C)C(=O)/C=C/C2(C)OC2C1COC1OC(C)C(O)C(OC)C1OC` (stereo not drawn) [Control compound (1), 4"-O-isovaleryl angola-mycin, reference compound], the remaining at 1 h amounted to 55%.

`CCC1OC(=O)CC(O)C(C)C(OC2CC(N(C)C)C(OC3CC(C)(O)C(OC(=O)Cc4ccc(C(C)=O)cc4)C(C)O3)C(C)O2)C(CC=O)CC(C)C(=O)/C=C/C2(C)OC2C1COC1OC(C)C(O)C(OC)C1OC` (stereo not drawn) [Compound (1), 4"-O-(p-acetylphenylacetyl)-angolamycin]: the remaining at 1 h was 94%.

For `CCC1OC(=O)CC(O)C(C)C(OC2CC(N(C)C)C(OC3CC(C)(O)C(OC(=O)Cc4ccc(OC)cc4)C(C)O3)C(C)O2)C(CC=O)CC(C)C(=O)/C=C/C2(C)OC2C1COC1OC(C)C(O)C(OC)C1OC` (stereo not drawn) [Compound (2), 4"-O-(p-methoxyphenylacetyl)-angolamycin], the remaining at 1 h worked out at 95%.
